According to patent US20220380341A1, “INHIBITORS OF HIV-1 NEF FOR THE TREATMENT OF HIV DISEASE” (priority 2018, published 2022):
Where two headings read alike, the source gives them in different places.

Key:
HIV-1NL4-3 = test: HIV-1 infectivity assay in TZM-bl reporter cell line (LTR-luciferase, 48 h); type: cell-based; details: for inhibition at 1 µM: Human immunodeficiency virus 1, TZM-bl
Method in brief: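 Nef-dependent infectivity in TZM-bl cells: HIV-1NL4-3 infection with 1 μM compound, luciferase read at 48 h, normalized against DMSO wild-type and Nef-defective controls. Compound cytotoxicity in uninfected cells measured by Cell Titer Blue.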

TZM-bl cell line = type: cell-based; details: 1 μM
Method in brief: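 Read-out is luciferase from an integrated HIV-1 LTR reporter in TZM-bl cells, 48 h after HIV-1NL4-3 infection in the presence of 1 μM compound. Scale set by DMSO-treated wild-type-infected cells (0%) and Nef-defective virus (100% Nef-dependent effect). Cell Titer Blue measures cytotoxicity without virus.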

HIV-1 NefNL4-3 = HIV-1 NefNL4-3 (Human immunodeficiency virus type 1 group M subtype B, UniProt P03406, A33V/T15A/T51N/V11I); test: Surface plasmon resonance binding to recombinant full-length Nef (NL4-3); details: for RU30/RUNef (extent of binding): response units at 30 μM relative to Nef immobilized on the SPR chip
[1] = 1.0 μM, TZM-bl reporter cell line, Table 4, read-out: % Infectivity Inhibition
[2] = 48 h, Table 1, TZM-bl cells, 1 μM, 48 h, 100% = Nef-defective HIV-1, read-out: HIV-1 Infectivity % Inhibition Norm. to Δ-Nef @ 1 μM
[3] = Nef NL4-3 Binding, SPR 2-state fitting KD, Table 1, 2-step induced-fit model
[4] = KD, M, Table 4, SPR fit 2-step induced fit, KD = koff/kon × koff2/(koff2 + kon2)
[5] = Table 4, 2-step induced fit, T = 1/koff2
[6] = read-out: Nef NL4-3 Binding, SPR 1:1 or 2-site fitting KD2, Table 1, 2-site fit, second component

Question: Which inhibition at 1 µM (HIV-1NL4-3; [1]) does the source give for `CC(C)(C)OC(=O)N1CCN(Cc2nn(-c3nc4ccccc4[nH]3)c(O)c2CCc2ccc(F)cc2)CC1` [Compound I-211, tert-butyl 4-{[1-(1H-1,3-benzodiazol-2-yl)-4-[2-(4-fluorophenyl)ethyl]-5-hydroxy-1H-pyrazol-3-yl]methyl}piperazine-1-carboxylate] here?
Answer: Its inhibition at 1 µM is 0%.

Question: And the inhibition at 1 µM (HIV-1NL4-3; [2])?
Answer: Its inhibition at 1 µM is -19.4%.

Question: What about the “% Cell Viability” value (TZM-bl cell line; human) of the same molecule?
Answer: The value was 100%.

Question: What about the “Percent Viability @ 1 μM (TZM-bl cells)” value (TZM-bl cell line; human) of the same molecule?
Answer: Its value is 103.5%.

Question: And the Kd (HIV-1 NefNL4-3)?
Answer: The Kd was 7220 nM.

Question: And the Kd (HIV-1 NefNL4-3; KD, M, Table 4, SPR fit 1:1 Langmuir, KD = koff/kon)?
Answer: The Kd was 7220 nM.

Question: What about the “T, minutes (residence time)” value (HIV-1 NefNL4-3; Table 4, 1:1 Langmuir fit, T = 1/koff) of the same molecule?
Answer: The value was 1.65E + 00 minutes.

Question: And the “RU30/RUNef (extent of binding)” value (HIV-1 NefNL4-3)?
Answer: The value was 2.89E- 03.

Question: Which inhibition at 1 µM (HIV-1NL4-3; [2]) does the source give for `CC(C)(C)OC(=O)NCc1nn(-c2nc3ccccc3[nH]2)c(O)c1CCc1ccc(F)cc1` [Compound I-212, tert-butyl N-{[1-(1H-1,3-benzodiazol-2-yl)-4-[2-(4-fluorophenyl)ethyl]-5-hydroxy-1H-pyrazol-3-yl]methyl}carbamate] here?
Answer: Its inhibition at 1 µM is 50.9%.

Question: And the “Percent Viability @ 1 μM (TZM-bl cells)” value (TZM-bl cell line; human)?
Answer: The value was 92.9%.

Question: And the Kd (HIV-1 NefNL4-3)?
Answer: The Kd was 538 nM.

Question: What about the Kd (HIV-1 NefNL4-3; Nef NL4-3 Binding, SPR 1:1 or 2-site fitting KD2, Table 1, 2-site fit, second component) of the same molecule?
Answer: The Kd was 1480 nM.

Question: What about the Kd (HIV-1 NefNL4-3; [3]) of the same molecule?
Answer: Its Kd is 2320 nM.

Question: With `CC(C)(C)OC(=O)NC1(c2nn(-c3nc4ccccc4[nH]3)c(O)c2CCc2ccc(F)cc2)CCOCC1` [Compound I-213, tert-butyl N-{4-[1-(1H-l,3-benzodiazol-2-yl)-4-[2-(4-fluorophenyl)ethyl]-5-hydroxy-1H-pyrazol-3-yl]oxan-4-yl}carbamate] as the molecule, how does the “HIV-1 Infectivity % Inhibition Norm. to Δ-Nef @ 1 μM” value (HIV-1NL4-3; Table 1, TZM-bl cells, 1 μM, 48 h, 100% = Nef-defective HIV-1) read?
Answer: The value was −4.6%.

Question: What about the “Percent Viability @ 1 μM (TZM-bl cells)” value (TZM-bl cell line; Table 1, uninfected TZM-bl cells, Cell Titer Blue) of the same molecule?
Answer: The value was 97.6%.

Question: And the Kd (HIV-1 NefNL4-3; Table 1, 1:1 Langmuir fit where the KD2 cell says '1 to 1 fitting', else 2-site fit, read-out: Nef NL4-3 Binding, SPR 1:1 or 2-site fitting KD1)?
Answer: The Kd was 1600 nM.

Question: Which results are given for `CC(C)(C)OC(=O)N1CCCC(Cc2nn(-c3nc4ccccc4[nH]3)c(O)c2CCc2ccc(F)cc2)C1` (centres unmarked) [Compound I-214, tert-butyl 3-{[1-(1H-1,3-benzodiazol-2-yl)-4-[2-(4-fluorophenyl)ethyl]-5-hydroxy-1H-pyrazol-3-yl]methyl}piperidine-1-carboxylate]?
Answer: inhibition at 1 µM (HIV-1NL4-3; [2]): -5.5%; Percent Viability @ 1 μM (TZM-bl cells) (TZM-bl cell line; human): 99.9%; Kd (HIV-1 NefNL4-3): 20.8 nM

Question: Which inhibition at 1 µM (HIV-1NL4-3; [2]) does the source give for `CC(C)(C)OC(=O)N1CCC(c2nn(-c3nc4cccc(Cl)c4[nH]3)c(O)c2CCc2ccc(F)cc2)CC1` [Compound I-217, tert-butyl 4-[1-(7-chloro-1H-1,3-benzodiazol-2-yl)-4-[2-(4-fluorophenyl)ethyl]-5-hydroxy-1H-pyrazol-3-yl]piperidine-1-carboxylate] here?
Answer: The inhibition at 1 µM was 0.1%.

Question: And the “Percent Viability @ 1 μM (TZM-bl cells)” value (TZM-bl cell line; human)?
Answer: Its value is 104.9%.

Question: What about the “Nef NL4-3 Binding, SPR 1:1 or 2-site fitting KD1” value (HIV-1 NefNL4-3; Table 1, 1:1 Langmuir fit where the KD2 cell says '1 to 1 fitting', else 2-site fit) of the same molecule?
Answer: Its value is “No Interaction”.

Question: Which inhibition at 1 µM (HIV-1NL4-3; [1]) does the source give for `CC(C)(C)OC(=O)N1CCC(CCc2c(C3CC3)nn(-c3nc4cc(Cl)ccc4[nH]3)c2O)CC1` [Compound I-218, tert-butyl 4-{2-[1-(5-chloro-1H-1,3-benzodiazol-2-yl)-3-cyclopropyl-5-hydroxy-1H-pyrazol-4-yl]ethyl}piperidine-1-carboxylate] here?
Answer: Its inhibition at 1 µM is 0%.

Question: And the inhibition at 1 µM (HIV-1NL4-3; [2])?
Answer: Its inhibition at 1 µM is -7%.

Question: And the “% Cell Viability” value (TZM-bl cell line; human)?
Answer: Its value is 97.9%.

Question: What about the “Percent Viability @ 1 μM (TZM-bl cells)” value (TZM-bl cell line; human) of the same molecule?
Answer: Its value is 97.9%.

Question: What about the Kd (HIV-1 NefNL4-3) of the same molecule?
Answer: The Kd was 1120 nM.

Question: What about the Kd (HIV-1 NefNL4-3; [4]) of the same molecule?
Answer: Its Kd is 692 nM.

Question: And the Kd (HIV-1 NefNL4-3; [3])?
Answer: The Kd was 692 nM.

Question: And the “T, minutes (residence time)” value (HIV-1 NefNL4-3; [5])?
Answer: The value was 1.02E + 01 minutes.

Question: What about the “RU30/RUNef (extent of binding)” value (HIV-1 NefNL4-3) of the same molecule?
Answer: The value was 1.32E- 02.

Question: With `CC(C)(C)OC(=O)N1CCC(c2nn(-c3nc4cc(F)c(F)cc4[nH]3)c(O)c2CCc2ccc(F)cc2)CC1` [Compound I-219, tert-butyl 4-[1-(5,6-difluoro-1H-1,3-benzodiazol-2-yl)-4-[2-(4-fluorophenyl)ethyl]-5-hydroxy-1H-pyrazol-3-yl]piperidine-1-carboxylate] as the molecule, how does the inhibition at 1 µM (HIV-1NL4-3; [1]) read?
Answer: Its inhibition at 1 µM is 100%.

Question: And the inhibition at 1 µM (HIV-1NL4-3; [2])?
Answer: The inhibition at 1 µM was 109%.

Question: And the “% Cell Viability” value (TZM-bl cell line; human)?
Answer: Its value is 79.2%.

Question: And the “Percent Viability @ 1 μM (TZM-bl cells)” value (TZM-bl cell line; human)?
Answer: Its value is 79.2%.

Question: And the Kd (HIV-1 NefNL4-3; [4])?
Answer: The Kd was 49.3 nM.

Question: What about the Kd (HIV-1 NefNL4-3; [3]) of the same molecule?
Answer: Its Kd is 49.3 nM.

Question: And the “T, minutes (residence time)” value (HIV-1 NefNL4-3; [5])?
Answer: The value was 4.93E + 02 minutes.

Question: And the Kd (HIV-1 NefNL4-3; [6])?
Answer: Its Kd is 3290 nM.

Question: And the “RU30/RUNef (extent of binding)” value (HIV-1 NefNL4-3)?
Answer: The value was 4.76E- 03.

Question: For `CC(C)(C)OC(=O)N1CCC(c2nn(-c3nc4cccnc4[nH]3)c(O)c2CCc2ccc(F)cc2)CC1` [Compound I-220, tert-butyl 4-{4-[2-(4-fluorophenyl)ethyl]-5-hydroxy-1-{3H-imidazo[4,5-b]pyridin-2-yl}-1H-pyrazol-3-yl}piperidine-1-carboxylate], which inhibition at 1 µM (HIV-1NL4-3; [1]) is on record?
Answer: The inhibition at 1 µM was 9.8%.

Question: What about the inhibition at 1 µM (HIV-1NL4-3; [2]) of the same molecule?
Answer: Its inhibition at 1 µM is 9.8%.

Question: What about the “% Cell Viability” value (TZM-bl cell line; human) of the same molecule?
Answer: The value was 100%.

Question: And the “Percent Viability @ 1 μM (TZM-bl cells)” value (TZM-bl cell line; human)?
Answer: The value was 103.6%.

Question: And the Kd (HIV-1 NefNL4-3)?
Answer: The Kd was 283 nM.

Question: What about the Kd (HIV-1 NefNL4-3; [4]) of the same molecule?
Answer: Its Kd is 3950 nM.

Question: And the Kd (HIV-1 NefNL4-3; [3])?
Answer: Its Kd is 3950 nM.

Question: What about the “T, minutes (residence time)” value (HIV-1 NefNL4-3; [5]) of the same molecule?
Answer: The value was 6.92E + 00 minutes.

Question: What about the Kd (HIV-1 NefNL4-3; [6]) of the same molecule?
Answer: Its Kd is 3820 nM.

Question: What about the “RU30/RUNef (extent of binding)” value (HIV-1 NefNL4-3) of the same molecule?
Answer: The value was 7.24E- 03.

Question: For `CC(C)(C)OC(=O)N1CCC(c2nn(-c3nc4ccncc4[nH]3)c(O)c2CCc2ccc(F)cc2)CC1` [Compound I-221, tert-butyl 4-{4-[2-(4-fluorophenyl)ethyl]-5-hydroxy-1-{3H-imidazo[4,5-c]pyridin-2-yl}-1H-pyrazol-3-yl}piperidine-1-carboxylate], which inhibition at 1 µM (HIV-1NL4-3; [2]) is on record?
Answer: The inhibition at 1 µM was 10.6%.

Question: What about the “Percent Viability @ 1 μM (TZM-bl cells)” value (TZM-bl cell line; human) of the same molecule?
Answer: Its value is 103.1%.

Question: And the Kd (HIV-1 NefNL4-3)?
Answer: The Kd was 12800 nM.
